Laboratory results reported in ChEMBL document CHEMBL4680266, “Iodoquinazolinones bearing benzenesulfonamide as human carbonic anhydrase I, II, IX and XII inhibitors: Synthesis, biological evaluation and radiosensitizing activity” (Eur J Med Chem, 2020).

Experiments:
Carbonic anhydrase 9 = Carbonic anhydrase 9 (Homo sapiens, UniProt Q16790); experiment: Inhibition of recombinant human carbonic anhydrase 9 incubated for 15 mins prior to testing measured for 10 to 100 secs by phenol red-based stopped-flow CO2 hydration assay
MCF7 [1] = experiment: Cytotoxicity against human MCF7 cells assessed as reduction in cell viability irradiated with 8 Gy gamma radiation and measured after 24 hrs by MTT assay; type: functional, cell-based; conditions: MCF7, light or radiation study
WI-38 [2] = experiment: Cytotoxicity against human WI-38 cells assessed as reduction in cell viability irradiated with 8 Gy gamma radiation and measured after 24 hrs by MTT assay; type: cell-based; conditions: WI-38, light or radiation study
MCF7 [3] = experiment: Cytotoxicity against human MCF7 cells assessed as reduction in cell viability by MTT assay; type: functional, cell-based
WI-38 [4] = experiment: Cytotoxicity against human WI-38 cells assessed as reduction in cell viability by MTT assay; type: cell-based
HepG2 [5] = experiment: Cytotoxicity against human HepG2 cells assessed as reduction in cell viability by MTT assay; type: functional, cell-based
HCT-116 [6] = experiment: Cytotoxicity against human HCT-116 cells assessed as reduction in cell viability irradiated with 8 Gy gamma radiation and measured after 24 hrs by MTT assay; type: functional, cell-based; conditions: HCT-116, light or radiation study
HepG2 [7] = experiment: Cytotoxicity against human HepG2 cells assessed as reduction in cell viability irradiated with 8 Gy gamma radiation and measured after 24 hrs by MTT assay; type: functional, cell-based; conditions: HepG2, light or radiation study
HCT-116 [8] = experiment: Cytotoxicity against human HCT-116 cells assessed as reduction in cell viability by MTT assay; type: functional, cell-based

Ki (Carbonic anhydrase 9)	SMILES	other results
244 nM	Cc1cccc(NC(=O)CSc2nc3ccc(I)cc3c(=O)n2-c2ccc(S(N)(=O)=O)cc2)c1	
55.2 nM	CCc1cccc(NC(=O)CSc2nc3ccc(I)cc3c(=O)n2-c2ccc(S(N)(=O)=O)cc2)c1	
90.3 nM	Cc1cccc([N+](=O)[O-])c1NC(=O)CSc1nc2ccc(I)cc2c(=O)n1-c1ccc(S(N)(=O)=O)cc1	
29.1 nM	COc1cc(NC(=O)CSc2nc3ccc(I)cc3c(=O)n2-c2ccc(S(N)(=O)=O)cc2)cc(OC)c1	
46.9 nM	NS(=O)(=O)c1ccc(-n2c(SCC(=O)Nc3ccc([N+](=O)[O-])cc3[N+](=O)[O-])nc3ccc(I)cc3c2=O)cc1	
34.5 nM	CCOc1ccc(NC(=O)CSc2nc3ccc(I)cc3c(=O)n2-c2ccc(S(N)(=O)=O)cc2)cc1	
59.1 nM	Cc1cc([N+](=O)[O-])ccc1NC(=O)CSc1nc2ccc(I)cc2c(=O)n1-c1ccc(S(N)(=O)=O)cc1	
91.7 nM	Cc1ccc(NC(=O)CSc2nc3ccc(I)cc3c(=O)n2-c2ccc(S(N)(=O)=O)cc2)cc1	
29.1 nM	CCc1ccccc1NC(=O)CSc1nc2ccc(I)cc2c(=O)n1-c1ccc(S(N)(=O)=O)cc1	IC50 (MCF7 [1]): 31 nM; IC50 (WI-38 [2]): 3140 nM; IC50 (MCF7 [3]): 3070 nM; IC50 (WI-38 [4]): 5710 nM; IC50 (HepG2 [5]): 1780 nM; IC50 (HCT-116 [6]): 19 nM; IC50 (HepG2 [7]): 41 nM; IC50 (HCT-116 [8]): 1940 nM
2230 nM	NS(=O)(=O)c1ccc(-n2c(S)nc3ccc(I)cc3c2=O)cc1	
67.3 nM	CCc1ccc(NC(=O)CSc2nc3ccc(I)cc3c(=O)n2-c2ccc(S(N)(=O)=O)cc2)cc1	
337 nM	NS(=O)(=O)c1ccc(-n2c(SCC(=O)Nc3ccccc3)nc3ccc(I)cc3c2=O)cc1	
73.2 nM	COc1ccc(NC(=O)CSc2nc3ccc(I)cc3c(=O)n2-c2ccc(S(N)(=O)=O)cc2)cc1	
429 nM	Cc1ccccc1NC(=O)CSc1nc2ccc(I)cc2c(=O)n1-c1ccc(S(N)(=O)=O)cc1	
30.4 nM	COc1cc(NC(=O)CSc2nc3ccc(I)cc3c(=O)n2-c2ccc(S(N)(=O)=O)cc2)cc(OC)c1OC	
